Test results as given in ChEMBL document CHEMBL6127035, “Novel pyridazinone derivatives bind to KSRP: Synthesis, anti-tumor biological evaluations and modelling insights” (Eur J Med Chem, 2024).
Activity calls are given as the source filed them. No cut-off for these calls is given here.

Key:
[1] = test system: MCF7; test: Antiproliferative activity against human MCF7 cells assessed as reduction in cell viability incubated for 2 days by MTT assay; assay type: functional, cell-based; conditions: MCF7, 48 h
[2] = test system: KB; test: Antiproliferative activity against human KB cells assessed as reduction in cell viability incubated for 2 days by MTT assay; assay type: functional, cell-based; conditions: 48 h
[3] = test system: A549; test: Antiproliferative activity against human A549 cells assessed as reduction in cell viability incubated for 2 days by MTT assay; assay type: functional, cell-based; conditions: A549, 48 h
[4] = test system: U-87 MG; test: Antiproliferative activity against human U-87 MG cells assessed as reduction in cell viability incubated for 2 days by MTT assay; assay type: functional, cell-based, U-87MG ATCC; conditions: 48 h
[5] = test system: MIA PaCa-2; test: Antiproliferative activity against human MIA PaCa-2 cells assessed as reduction in cell viability incubated for 2 days by MTT assay; assay type: functional, cell-based; conditions: MIA PaCa-2, 48 h
[6] = Cytotoxicity against human L02 cells assessed as reduction in cell viability incubated for 2 days by MTT assay; assay type: toxicity, cell-based
[7] = test system: MCF7; test: Inhibition of colony formation in human MCF7 cells assessed as reduction in colony count incubated for 2 weeks by crystal violet staining based analysis; assay type: functional, cell-based; conditions: dose 1.25-2.5 µM
[8] = test system: MCF7; test: Antiproliferation against human MCF7 cells assessed as effect on cell proliferation at 0.625 uM incubated for 2 days by MTT assay; assay type: functional, cell-based; conditions: time 2.0 day
[9] = test system: MDA-MB-231; test: Inhibition of cell migration in human MDA-MB-231 cells assessed as reduction in wound healing index measured after 72 hrs by scratch assay; assay type: functional, cell-based
[10] = test system: MCF7; test: Induction of apoptosis in human MCF7 cells assessed as viable cells at 0.62 uM incubated for 48 hrs by Annexin V-FITC/PI staining based flow cytometric analysis (reference value: 87.2 %); assay type: functional; conditions: read-out: Activity
[11] = test system: MCF7; test: Induction of apoptosis in human MCF7 cells assessed as late apoptotic cells at 0.62 uM incubated for 48 hrs by Annexin V-FITC/PI staining based flow cytometric analysis (reference value: 5.31 %); assay type: functional
[12] = test system: MCF7; test: Induction of apoptosis in human MCF7 cells assessed as necrotic cells at 0.62 uM incubated for 48 hrs by Annexin V-FITC/PI staining based flow cytometric analysis (reference value: 1.16 %); assay type: functional
[13] = test system: MCF7; test: Induction of apoptosis in human MCF7 cells assessed as viable cells at 1.25 uM incubated for 48 hrs by Annexin V-FITC/PI staining based flow cytometric analysis (reference value: 87.2 %); assay type: functional; conditions: read-out: Activity
[14] = test system: MCF7; test: Induction of apoptosis in human MCF7 cells assessed as necrotic cells at 1.25 uM incubated for 48 hrs by Annexin V-FITC/PI staining based flow cytometric analysis (reference value: 1.16 %); assay type: functional
[15] = test system: MCF7; test: Induction of apoptosis in human MCF7 cells assessed as viable cells at 2.5 uM incubated for 48 hrs by Annexin V-FITC/PI staining based flow cytometric analysis (reference value: 87.2 %); assay type: functional; conditions: read-out: Activity
[16] = test system: MCF7; test: Induction of apoptosis in human MCF7 cells assessed as necrotic cells at 2.5 uM incubated for 48 hrs by Annexin V-FITC/PI staining based flow cytometric analysis (reference value: 1.16 %); assay type: functional
[17] = test system: MCF7; test: Induction of cell cycle arrest in human MCF7 cells assessed as increase in sub-G1 phase cells at 5 uM incubated for 24 hrs by PI staining based flow cytometric analysis; assay type: functional
[18] = test system: Mitochondrial membrane; test: Induction of mitochondrial membrane potential loss in human MCF7 cells assessed as increase in green fluorescence at 10 uM incubated for 24 hrs by JC-1 staining based automated microscopic immunofluorescence analysis; assay type: cell membranes
[19] = test system: MCF7; test: Induction of ROS accumulation in human MCF7 cells assessed as increase in green fluorescence at 5 uM incubated for 24 hrs by DCFH-DA staining based automated microscopic immunofluorescence analysis; assay type: functional, cell-based
[20] = test system: MCF7; test: Induction of DNA double-strand breaks in human MCF7 cells assessed as enlarged nucleus at 10 uM incubated for 24 hrs by Hoechst 33342 staining based fluorescence microscopic analysis; assay type: functional, cell-based
[21] = test system: MCF7; test: Induction of DNA double-strand breaks in human MCF7 cells assessed as appearance of nuclear fragments at 10 uM incubated for 24 hrs by Hoechst 33342 staining based fluorescence microscopic analysis; assay type: functional, cell-based
[22] = Acute toxicity in BALB/c nu/nu mouse assessed as survival rate at 90 mg/kg, ip administered for 7 days relative to control; assay type: organism-based; conditions: in vivo, time 7 day
[23] = Acute toxicity in BALB/c nu/nu mouse assessed as survival rate at 110 mg/kg, ip administered for 7 days relative to control; assay type: organism-based; conditions: in vivo, time 7 day
[24] = Acute toxicity in ip dosed BALB/c nu/nu mouse assessed as lethal dose measured after 7 days; assay type: organism-based; conditions: in vivo, time 7 day
[25] = test system: MCF7; test: Antitumor activity against human MCF7 cells xenografted in BALB/C-nu/nu mouse model assessed as decrease in tumor growth at 20 to 30 mg/kg, iv administered every other day for 15 days; assay type: functional, organism-based; conditions: dose 20-30 mg/kg, time 15.0 day
[26] = test system: MCF7; test: Antitumor activity against human MCF7 cells xenografted in BALB/C-nu/nu mouse model assessed as decrease in tumor weight at 20 mg/kg, iv administered every other day for 15 days relative to control; assay type: functional; set-up: scale not given: the % may be the effect or the level left; conditions: time 15 day
[27] = test system: MCF7; test: Antitumor activity against human MCF7 cells xenografted in BALB/C-nu/nu mouse model assessed as decrease in tumor weight at 30 mg/kg, iv administered every other day for 15 days relative to control; assay type: functional; set-up: scale not given: the % may be the effect or the level left; conditions: time 15 day
[28] = test system: MCF7; test: Antitumor activity against human MCF7 cells xenografted in BALB/C-nu/nu mouse model assessed as increase in gamma-H2AX expression at 20 to 30 mg/kg, iv administered every other day for 15 days by immunohistochemical analysis; assay type: functional, organism-based; conditions: dose 20-30 mg/kg, time 15.0 day
[29] = Toxicity in BALB/C-nu/nu mouse xenografted with human MCF7 cells assessed as histopathological lesions in spleen at 20 to 30 mg/kg, iv administered every other day for 15 days by H and E staining based analysis; assay type: organism-based; conditions: in vivo, 360 h, dose 20-30 mg/kg, time 15 day
[30] = Toxicity in BALB/C-nu/nu mouse xenografted with human MCF7 cells assessed as histopathological lesions in kidney at 20 to 30 mg/kg, iv administered every other day for 15 days by H and E staining based analysis; assay type: organism-based; conditions: in vivo, 360 h, dose 20-30 mg/kg, time 15 day

Which results are given for `CN(CCO)S(=O)(=O)c1ccc(-n2ncc(Cl)c(Cl)c2=O)cc1`?
IC50 [1]: 3.1 µM; IC50 [2]: 380 nM; IC50 [3]: 2050 nM; IC50 [4]: 400 nM; IC50 [5]: 360 nM; IC50 at 2 days [6]: 8.34 µM; inhibition [7]: Dose-Dependent Effect; Activity [8]: inactive; inhibition [9]: Active; viability at 0.62 µM [10]: 84.5%; Activity [11]: 6.63%; Activity [12]: 1.3%; viability at 1.25 µM [13]: 75.1%; Activity [14]: 1.26%; viability at 2.5 µM [15]: 39.5%; Activity [16]: 2.77%; Activity [17]: Active; Activity [18]: Active; Activity [19]: Active; Activity [20]: Active; Activity [21]: Active; survival at 168 h [22]: 100%; survival at 168 h [23]: 20%; LD50 at 168 h [24]: 105 mg/kg; Activity [25]: Active; Activity [26]: 44.6%; Activity [27]: 74.2%; Activity [28]: Active; Activity [29]: Non-Toxic; Activity [30]: Non-Toxic
